Experimental data taken from patent publication US8598365B2, “Herbicides” (Syngenta Limited, priority 2007, dated 2013).

Columns and labels:
Format in all cases: in vivo
Setaria faberi (SETFA) [1] = test: Example B post-emergence herbicidal activity; conditions: 312 h, rate 250 g/ha, evaluated after 13 days, read-out: Post-emergence activity SETFA (100=total damage to plant; 0=no damage to plant)
Outline: (§1)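 Plants in pots of standard soil receive an aqueous spray of the formulated active (acetone/water 50:50, 0.5% Tween 20), either one day after sowing or after eight days of growth. They then grow under glasshouse conditions and are scored for damage after 13 days (100 = total, 0 = none).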

[2] = tested on: Echinochloa crus-galli (ECHCG); test: Example B post-emergence herbicidal activity; conditions: 312 h, rate 250 g/ha, evaluated after 13 days, read-out: Post-emergence activity ECHCG (100=total damage to plant; 0=no damage to plant)
Outline: as §1

[3] = tested on: Amaranthus retoflexus (AMARE); test: Example B post-emergence herbicidal activity; conditions: Amaranthus retroflexus, 312 h, rate 250 g/ha, evaluated after 13 days, read-out: Post-emergence activity AMARE (100=total damage to plant; 0=no damage to plant)
Outline: as §1

Avena fatua (AVEFA) [4] = test: Example B post-emergence herbicidal activity; conditions: 312 h, rate 250 g/ha, evaluated after 13 days, read-out: Post-emergence activity AVEFA (100=total damage to plant; 0=no damage to plant)
Outline: as §1

[5] = tested on: Alopecurus myosuroides (ALOMY); test: Example B post-emergence herbicidal activity; conditions: 312 h, rate 250 g/ha, evaluated after 13 days, read-out: Post-emergence activity ALOMY (100=total damage to plant; 0=no damage to plant)
Outline: as §1

Setaria faberi (SETFA) [6] = test: Example B pre-emergence herbicidal activity; conditions: 312 h, rate 250 g/ha, evaluated after 13 days, read-out: Pre-Emergence Activity SETFA (100=total damage to plant; 0=no damage to plant)
Description: (§2) Seeds of a variety of test species were sown in standard soil in pots. After cultivation for one day (pre-emergence) or after 8 days cultivation (post-emergence) under controlled conditions in a glasshouse (at 24/16° C., day/night; 14 hours light; 65% humidity), the plants were sprayed with an aqueous spray solution derived from the formulation of the technical active ingredient in acetone/water (50:50) solution containing 0.5% Tween 20 (polyoxyethelyene sorbitan monolaurate, CAS RN 9005-64-5).
(§3) The test plants were then grown in a glasshouse under controlled conditions in a glasshouse (at 24/16° C., day/night; 14 hours light; 65% humidity) and watered twice daily. After 13 days for pre and post-emergence, the test was evaluated (100=total damage to plant; 0=no damage to plant).
(§4) Alopecurus myosuroides (ALOMY), Avena fatua (AVEFA), Setaria faberi (SETFA), Echinochloa crus-galli (ECHCG), Solanum nigrum (SOLNI) and Amaranthus retoflexus (AMARE)

[7] = tested on: Echinochloa crus-galli (ECHCG); test: Example B pre-emergence herbicidal activity; conditions: 312 h, rate 250 g/ha, evaluated after 13 days, read-out: Pre-Emergence Activity ECHCG (100=total damage to plant; 0=no damage to plant)
Description: as §2, §3, §4

[8] = tested on: Amaranthus retoflexus (AMARE); test: Example B pre-emergence herbicidal activity; conditions: Amaranthus retroflexus, 312 h, rate 250 g/ha, evaluated after 13 days, read-out: Pre-Emergence Activity AMARE (100=total damage to plant; 0=no damage to plant)
Description: as §2, §3, §4

Avena fatua (AVEFA) [9] = test: Example B pre-emergence herbicidal activity; conditions: 312 h, rate 250 g/ha, evaluated after 13 days, read-out: Pre-Emergence Activity AVEFA (100=total damage to plant; 0=no damage to plant)
Description: as §2, §3, §4

[10] = tested on: Alopecurus myosuroides (ALOMY); test: Example B pre-emergence herbicidal activity; conditions: 312 h, rate 250 g/ha, evaluated after 13 days, read-out: Pre-Emergence Activity ALOMY (100=total damage to plant; 0=no damage to plant)
Description: as §2, §3, §4

Compound | pest or weed control at 250 g/ha (Setaria faberi (SETFA) [1]) [%] | pest or weed control at 250 g/ha [2] [%] | pest or weed control at 250 g/ha [3] [%] | pest or weed control at 250 g/ha (Avena fatua (AVEFA) [4]) [%] | pest or weed control at 250 g/ha [5] [%] | pest or weed control at 250 g/ha (Setaria faberi (SETFA) [6]) [%] | pest or weed control at 250 g/ha [7] [%] | pest or weed control at 250 g/ha [8] [%] | pest or weed control at 250 g/ha (Avena fatua (AVEFA) [9]) [%] | pest or weed control at 250 g/ha [10] [%]
CCc1sc(-c2ccc(Cl)cc2F)nc1C1C(=O)[C@@H]2CC[C@@H](C2)C1=O (stereo partly shown) [Compound T26] | 100 | 100 | 40 | 100 | 100 | 100 | 100 | 0 | 60 | 90
CCc1sc(-c2ccc(Cl)c(F)c2)nc1C1C(=O)[C@@H]2CC[C@@H](C2)C1=O (stereo partly shown) [Compound T27] | 100 | 100 | 0 | 100 | 100 | 100 | 100 | 0 | 90 | 90
CCc1sc(-c2ccc(Br)cc2)nc1C1C(=O)[C@@H]2CC[C@@H](C2)C1=O (stereo partly shown) [Compound T28] | 100 | 100 | 0 | 100 | 100 | 100 | 100 | 0 | 90 | 80
CCc1sc(-c2c(F)cc(Cl)cc2F)nc1C1C(=O)[C@@H]2CC[C@@H](C2)C1=O (stereo partly shown) [Compound T29] | 100 | 100 | 0 | 100 | 100 | 100 | 100 | 20 | 90 | 90
Cc1sc(-c2ccc(I)cc2)nc1C1C(=O)[C@@H]2CC[C@@H](C2)C1=O (stereo partly shown) [Compound T30] | 100 | 100 | 0 | 100 | 100 | 100 | 100 | 20 | 100 | 90
Cc1sc(-c2ccc(Br)cc2F)nc1C1C(=O)[C@@H]2CC[C@@H](C2)C1=O (stereo partly shown) [Compound T32] | 100 | 100 | 0 | 90 | 100 | 100 | 100 | 0 | 80 | 90
CCc1sc(-c2ccc(Br)cc2F)nc1C1C(=O)[C@@H]2CC[C@@H](C2)C1=O (stereo partly shown) [Compound T33] | 100 | 100 | 0 | 100 | 100 | 100 | 100 | 0 | 50 | 90
Cc1sc(-c2ccc(Cl)s2)nc1C1C(=O)[C@@H]2CC[C@@H](C2)C1=O (stereo partly shown) [Compound T34] | 90 | 80 | 0 | 0 | 70 | 20 | 20 | 0 | 0 | 20
Cc1sc(-c2ccc(Br)cn2)nc1C1C(=O)[C@@H]2CC[C@@H](C2)C1=O (stereo partly shown) [Compound T35] | 100 | 100 | 0 | 80 | 100 | 100 | 90 | 0 | 0 | 30
CCc1sc(-c2ccc(Cl)s2)nc1C1C(=O)[C@@H]2CC[C@@H](C2)C1=O (stereo partly shown) [Compound T36] | 100 | 100 | 0 | 20 | 90 | 70 | 60 | 0 | 20 | 60
Cc1cc(Br)ccc1-c1nc(C2C(=O)[C@@H]3CC[C@@H](C3)C2=O)c(C)s1 (stereo partly shown) [Compound T37] | 100 | 100 | 0 | 90 | 100 | 90 | 60 | 0 | 30 | 30
CCc1sc(-c2ccc(Br)cc2C)nc1C1C(=O)[C@@H]2CC[C@@H](C2)C1=O (stereo partly shown) [Compound T38] | 100 | 100 | 0 | 100 | 100 | 100 | 70 | 0 | 50 | 60
CCc1sc(-c2ccc(Br)cn2)nc1C1C(=O)[C@@H]2CC[C@@H](C2)C1=O (stereo partly shown) [Compound T39] | 100 | 100 | 0 | 100 | 100 | 90 | 100 | 0 | 0 | 90
O=C1C(c2nc(-c3ccc(Br)cc3)sc2CC(F)(F)F)C(=O)[C@H]2CC[C@@H]1C2 (stereo partly shown) [Compound T40] | 100 | 100 | 0 | 100 | 100 | 100 | 100 | 0 | 100 | 100
CCc1sc(COc2ccc(Cl)cc2)nc1C1C(=O)[C@@H]2CC[C@@H](C2)C1=O (stereo partly shown) [Compound T41] | 100 | 100 | 0 | 70 | 100 | 40 | 100 | 0 | 0 | 80
Cc1sc(-c2ccc(OC(F)F)cc2)nc1C1C(=O)[C@@H]2CC[C@@H](C2)C1=O (stereo partly shown) [Compound T42] | 100 | 100 | 0 | 70 | 100 | 100 | 100 | 0 | 0 | 100
